Source: patent US8318105B2, “Systems and methods for biomarker analysis” (priority 2010, dated 2012)
“And” between values parts separate entries of the source, which are not always exact repeats. Identical values can stand only once.

Assays:
[1] = test system: peroxidase; assay: Peroxidase assay in saliva (Amplex Red); format: biochemical; conditions: compound prepared at 500 ppm, 30 minutes, FIGS. 26-29
Procedure: To determine the effect of various GRAS compounds as inhibitors of peroxidase activity, a standard assay using Amplex® Red (Life Technologies), which releases a fluorescent oxidation product.
The test compounds, such as GRAS materials or cocktails of same, were prepared at a concentration of 500 ppm in distilled water. For the assay, 50 μl samples of test compounds were mixed with 20-30 μl of saliva (either “pooled” or “unpooled”) prior to the addition of Amplex® Red. […] Reactions were allowed to run for 30 minutes during these assays.

[2] = target: T1, α-amylase (Homo sapiens, UniProt P0DUB6); assay: α-Amylase inhibition saliva screening (chromogenic substrate, absorbance 405 nm); format: biochemical; conditions: test compound prepared at 5,000 ppm, 37° C.; for absorbance at 405 nm, single readings: four replicate readings
T1 sequence (P0DUB6 16-511): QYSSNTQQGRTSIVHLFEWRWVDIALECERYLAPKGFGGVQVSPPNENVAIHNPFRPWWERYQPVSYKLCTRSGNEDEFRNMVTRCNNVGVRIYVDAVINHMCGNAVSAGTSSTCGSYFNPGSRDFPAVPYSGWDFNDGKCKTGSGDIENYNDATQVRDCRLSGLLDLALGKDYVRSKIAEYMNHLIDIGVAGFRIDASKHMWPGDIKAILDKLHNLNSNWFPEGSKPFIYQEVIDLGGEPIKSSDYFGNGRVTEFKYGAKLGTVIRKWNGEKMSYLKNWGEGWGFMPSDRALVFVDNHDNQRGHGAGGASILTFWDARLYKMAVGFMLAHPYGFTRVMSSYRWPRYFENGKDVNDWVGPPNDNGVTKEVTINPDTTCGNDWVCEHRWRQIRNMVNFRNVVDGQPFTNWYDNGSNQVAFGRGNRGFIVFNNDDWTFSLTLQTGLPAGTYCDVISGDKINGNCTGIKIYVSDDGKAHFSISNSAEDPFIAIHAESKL
Source text: Further details of these five compounds may also be seen in Table 4.

[3] = test system: protease; conditions: natural protease inhibitors from food; cited from earlier work

Molecule: Aluminum potassium sulfate dodecahydrate [CDI-42]
- peroxidase inhibition [1]: significant peroxidase inhibition capabilities
- Ave (absorbance at 405 nm) ([2]; 0 min): 0.92
- absorbance at 405 nm, single readings ([2]; 0 min): 0.80 and 1.13 and 0.90 and 0.84
- absorbance at 405 nm, single readings ([2]; 5 min): 1.65 and 2.15 and 1.80 and 1.81
- absorbance at 405 nm, single readings ([2]; 15 min): 2.37 and 2.38 and 2.25 and 2.17

Molecule: COc1ccc(O)c(C(C)(C)C)c1 [CDI-039, 3-tert--butyl-hydroxyanisole]
- peroxidase inhibition [1]: significant peroxidase inhibition capabilities

Molecule: Cn1c(=O)c2c(ncn2C)n(C)c1=O [CDI #33, Caffeine]
- peroxidase inhibition [1]: significant peroxidase inhibition capabilities

Molecule: Aluminum sulfate hydrate [CDI-34]
- Ave (absorbance at 405 nm) ([2]; 0 min): 0.40
- absorbance at 405 nm, single readings ([2]; 0 min, sulfate hydrate): 0.40 (2×) and 0.36 and 0.45
- Ave (absorbance at 405 nm) ([2]; 5 min): 0.50
- absorbance at 405 nm, single readings ([2]; 5 min, sulfate hydrate): 0.49 and 0.50 (2×) and 0.52
- Ave (absorbance at 405 nm) ([2]; 15 min): 0.56
- absorbance at 405 nm, single readings ([2]; 15 min, sulfate hydrate): 0.53 and 0.61 and 0.54 and 0.56

B1: Soybeans: primary soybean protease inhibitor, 20.7-22.3 kDa (protein, UniProt P01070 25-205, looked up)
Trypsin inhibitor A: DFVLDNEGNPLENGGTYYILSDITAFGGIRAAPTGNERCPLTVVQSRNELDKGIGTIISSPYRIRFIAEGHPLSLKFDSFAVIMLCVGIPTEWSVVEDLPEGPAVKIGENKDAMDGWFRLERVSDDEFNNYKLVFCPQQAEDDKCGDIGISIDHDDGTRRLVVSKNKPLVVQFQKLDKESL
- Inhibitory power [3]: 1.2 times times weight
